According to ChEMBL document CHEMBL1140597, “Evaluating scoring functions for docking and designing beta-secretase inhibitors” (Bioorg Med Chem Lett, 2007):

molecular target: Beta-secretase 1 (Homo sapiens, UniProt P56817); assay: Inhibition of BACE1
Sequence (P56817 whole entry): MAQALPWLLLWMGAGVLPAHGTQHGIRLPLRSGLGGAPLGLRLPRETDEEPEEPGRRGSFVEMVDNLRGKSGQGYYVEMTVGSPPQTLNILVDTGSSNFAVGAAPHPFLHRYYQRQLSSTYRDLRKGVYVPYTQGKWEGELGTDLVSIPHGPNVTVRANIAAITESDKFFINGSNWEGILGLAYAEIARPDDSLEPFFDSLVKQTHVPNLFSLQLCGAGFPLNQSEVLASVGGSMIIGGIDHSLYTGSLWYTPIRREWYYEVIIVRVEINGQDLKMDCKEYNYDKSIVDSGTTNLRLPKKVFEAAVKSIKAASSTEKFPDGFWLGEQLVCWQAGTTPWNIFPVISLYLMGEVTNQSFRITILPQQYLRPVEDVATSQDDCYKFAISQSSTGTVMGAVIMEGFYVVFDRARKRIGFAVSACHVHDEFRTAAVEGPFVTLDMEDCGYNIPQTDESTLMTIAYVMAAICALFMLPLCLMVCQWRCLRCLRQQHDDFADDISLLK

| IC50 [nM] | Ki [nM] | Compound |
| --- | --- | --- |
| 348 | – | CC(=O)c1ccccc1-c1cc(C(=O)N[C@@H](Cc2ccccc2)[C@H](O)CN[C@H](C)c2ccccc2)cc(C(=O)N[C@H](C)c2ccccc2)c1 |
| 9900 | – | CC(=O)c1ccccc1-c1cc(C(=O)N[C@H](CO)Cc2ccccc2)cc(C(=O)N[C@H](C)c2ccccc2)c1 |
| 674 | – | CC(=O)c1ccccc1-c1cc(C(=O)N[C@@H](Cc2ccccc2)[C@H](O)CNC(C)C)cc(C(=O)N[C@H](C)c2ccccc2)c1 |
| 1400 | – | CC(=O)c1ccccc1-c1cc(C(=O)N[C@@H](Cc2ccccc2)[C@H](O)CNC2CCC2)cc(C(=O)N[C@H](C)c2ccccc2)c1 |
| 115 | – | CC(=O)c1ccccc1-c1cc(C(=O)N[C@@H](Cc2ccccc2)[C@H](O)CNCc2ccccc2)cc(C(=O)N[C@H](C)c2ccccc2)c1 |
| 418 | – | CC(=O)c1ccccc1-c1cc(C(=O)N[C@@H](Cc2ccccc2)[C@H](O)CNCC2CC2)cc(C(=O)N[C@H](C)c2ccccc2)c1 |
| – | 5810 | CSCC[C@H](NC(=O)[C@@H](NC(=O)OC(C)(C)C)C(C)C)C(=O)N[C@@H](CC(C)C)[C@@H](O)C[C@@H](C)C(=O)N[C@H](C(=O)NCc1ccccc1)C(C)C |
| 110 | – | CC(=O)c1ccccc1-c1cc(C(=O)N[C@@H](Cc2ccccc2)[C@H](O)CNc2ccccc2)cc(C(=O)N[C@H](C)c2ccccc2)c1 |
| 115 | – | CC(=O)c1ccccc1-c1cc(C(=O)N[C@@H](Cc2ccccc2)[C@H](O)CN[C@@H](C)c2ccccc2)cc(C(=O)N[C@H](C)c2ccccc2)c1 |
| > 10000 | – | CC(=O)c1ccccc1-c1cc(C(=O)N[C@@H](Cc2ccccc2)[C@H](O)CN(C)Cc2ccccc2)cc(C(=O)N[C@H](C)c2ccccc2)c1 |
| > 10000 | – | CC(=O)c1ccccc1-c1cc(C(=O)N[C@@H](Cc2ccccc2)[C@H](O)CN2CCC2)cc(C(=O)N[C@H](C)c2ccccc2)c1 |
| – | 8 | CC(C)C[C@H](NC(=O)[C@H](CS(C)(=O)=O)NC(=O)[C@@H](NC(=O)OC(C)(C)C)C(C)C)[C@@H](O)C[C@@H](C)C(=O)N[C@H](C(=O)NCc1ccccc1)C(C)C |
| – | 0.3 | H-ELDLAVEF-OH |

| Compound | IC50 [nM] | Ki [nM] |
| --- | --- | --- |
| C=CCNC[C@@H](O)[C@H](Cc1ccccc1)NC(=O)c1cc(C(=O)N[C@H](C)c2ccccc2)cc(-c2ccccc2C(C)=O)c1 | 223 | – |
| CC(=O)c1ccccc1-c1cc(C(=O)N[C@@H](Cc2ccccc2)[C@H](O)CNC2CC2)cc(C(=O)N[C@H](C)c2ccccc2)c1 | 317 | – |
